Data on 32 compounds can be found in US10112899B2 (ViiV HEALTHCARE UK LIMITED, priority 2014, dated 2018).

SMILES strings stand for the structures.

The test system of one experiment is HIV in the HTLV-1 transformed cell line MT-4. The experiment is described as follows: organism not typed. The following applies: MT4, 96 h, MT-4 cells; luciferase/cell titer glo readout after 96 hours; 10 point dose response. It is filed as cell-based.
Broadly, the IC50 is the point on the concentration scale where inhibition reaches its midpoint. High values mean a need for much substance, low ones inhibition by little substance. In turn, `Cc1c(-c2c(C)c3c(c(C)c2[C@H](OC(C)(C)C)C(=O)O)CN(C(=O)N2CCC(F)(F)C2)C3)ccc2c1NCCO2` (atropisomer, axis not shown; (M)) [Example 312, (S)-2-(tert-butoxy)-2-((M)-2-(3,3-difluoropyrrolidine-1-carbonyl)-4,7-dimethyl-6-(5-methyl-3,4-dihydro-2H-benzo[b][1,4]oxazin-6-yl)isoindolin-5-yl)acetic acid] displayed an IC50 of 0.006 µM.

In the case of `Cc1ccc(-c2c(C)c3c(c(C)c2C(OC(C)(C)C)C(=O)O)CN(Cc2ccc(F)cc2)C3)cc1` (centres unmarked) [Example 1, 2-(tert-Butoxy)-2-(2-(4-fluorobenzyl)-4,7-dimethyl-6-(p-tolyl)isoindolin-5-yl)acetic acid], the IC50 was 0.035 µM.

The compound `Cc1ccc(-c2c(C)c3c(c(C)c2[C@H](OC(C)(C)C)C(=O)O)CN(Cc2ccc(F)cc2)C3)cc1` [Example 2, (S)-2-(tert-Butoxy)-2-(2-(4-fluorobenzyl)-4,7-dimethyl-6-(p-tolyl)isoindolin-5-yl)acetic acid] yielded a half-maximal inhibitory concentration (IC50) of 0.036 µM.

Take `Cc1ccc(-c2c(C)c3c(c(C)c2[C@H](OC(C)(C)C)C(=O)O)CN(Cc2cccc(F)c2F)C3)cc1` [Example 3, (S)-2-(tert-butoxy)-2-(2-(2,3-difluorobenzyl)-4,7-dimethyl-6-(p-tolyl)isoindolin-5-yl)acetic acid]: it took 0.04 µM to reach half-maximal inhibition (IC50). The IC50 values of the last two compounds are within 1.5-fold of each other.

Turning to `Cc1ccc(-c2c(C)c3c(c(C)c2[C@H](OC(C)(C)C)C(=O)O)CN(C(=O)NC2CCCCC2)C3)cc1` [Example 4, (S)-2-(tert-Butoxy)-2-(2-(cyclohexylcarbamoyl)-4,7-dimethyl-6-(p-tolyl)isoindolin-5-yl)acetic acid], the IC50 was 0.033 µM.

`Cc1ccc(-c2c(C)c3c(c(C)c2[C@H](OC(C)(C)C)C(=O)O)CN(C(=O)N2CCCCC2)C3)cc1` [Example 7, (S)-2-(tert-butoxy)-2-(4,7-dimethyl-2-(piperidine-1-carbonyl)-6-(p-tolyl)isoindolin-5-yl)acetic acid] had an IC50 of 0.004 µM.

Compound `Cc1ccc(-c2c(C)c3c(c(C)c2C(OC(C)(C)C)C(=O)O)CN(Cc2ccccc2)C3)cc1` (centres unmarked) [Example 9, 2-(2-Benzyl-4,7-dimethyl-6-(p-tolyl)isoindolin-5-yl)-2-(tert-butoxy)acetic acid] yielded an IC50 of 0.098 µM.

In turn, `Cc1ccc(-c2c(C)c3c(c(C)c2C(OC(C)(C)C)C(=O)O)CN(CC2CCCCC2)C3)cc1` (centres unmarked) [Example 10, 2-(tert-butoxy)-2-(2-(cyclohexylmethyl)-4,7-dimethyl-6-(p-tolyl)isoindolin-5-yl)acetic acid] registered an IC50 of 0.071 µM. The IC50 values of the last two compounds are within 1.5-fold of each other.

As to `Cc1ccc(-c2c(C)c3c(c(C)c2[C@H](OC(C)(C)C)C(=O)O)CN(Cc2ccncc2)C3)cc1` [Example 11, (S)-2-(tert-butoxy)-2-(4,7-dimethyl-2-(pyridin-4-ylmethyl)-6-(p-tolyl)isoindolin-5-yl)acetic acid], the IC50 was 0.174 µM.

In turn, `Cc1ccc(-c2c(C)c3c(c(C)c2[C@H](OC(C)(C)C)C(=O)O)CN(CC2CCOCC2)C3)cc1` [Example 12, (S)-2-(tert-butoxy)-2-(4,7-dimethyl-2-((tetrahydro-2H-pyran-4-yl)methyl)-6-(p-tolyl)isoindolin-5-yl)acetic acid] had an IC50 of 0.82 µM.

In the case of `Cc1ccc(-c2c(C)c3c(c(C)c2[C@H](OC(C)(C)C)C(=O)O)CN(Cc2cccc4ccccc24)C3)cc1` [Example 13, (S)-2-(tert-Butoxy)-2-(4,7-dimethyl-2-(naphthalen-1-ylmethyl)-6-(p-tolyl)isoindolin-5-yl)acetic acid], 0.044 µM corresponded to half-maximal inhibition (IC50).

As to `Cc1ccc(-c2c(C)c3c(c(C)c2[C@H](OC(C)(C)C)C(=O)O)CN(C2CCC(C)(C)CC2)C3)cc1` [Example 14, (S)-2-(tert-Butoxy)-2-(2-(4,4-dimethylcyclohexyl)-4,7-dimethyl-6-(p-tolyl)isoindolin-5-yl)acetic acid], half-maximal inhibition (IC50) was put at 0.118 µM.

`Cc1ccc(-c2c(C)c3c(c(C)c2C(OC(C)(C)C)C(=O)O)CN(S(C)(=O)=O)C3)cc1` (centres unmarked) [Example 15, 2-(tert-Butoxy)-2-(4,7-dimethyl-2-(methylsulfonyl)-6-(p-tolyl)isoindolin-5-yl)acetic acid] came in with an IC50 of 2.13 µM.

Compound `Cc1ccc(-c2c(C)c3c(c(C)c2C(OC(C)(C)C)C(=O)O)CN(S(=O)(=O)c2cccc4ccccc24)C3)cc1` (centres unmarked) [Example 16, 2-(tert-Butoxy)-2-(4,7-dimethyl-2-(naphthalen-1-ylsulfonyl)-6-(p-tolyl)isoindolin-5-yl)acetic acid] displayed an IC50 of 0.062 µM.

`Cc1ccc(-c2c(C)c3c(c(C)c2C(OC(C)(C)C)C(=O)O)CN(C(=O)OCc2ccccc2)C3)cc1` (centres unmarked) [Example 17, 2-(2-((Benzyloxy)carbonyl)-4,7-dimethyl-6-(p-tolyl)isoindolin-5-yl)-2-(tert-butoxy)acetic acid]: it took 1.28 µM to reach half-maximal inhibition (IC50).

`Cc1ccc(-c2c(C)c3c(c(C)c2[C@H](OC(C)(C)C)C(=O)O)CN(Cc2ccc(Cl)cc2)C3)cc1` [Example 18, (S)-2-(tert-butoxy)-2-(2-(4-chlorobenzyl)-4,7-dimethyl-6-(p-tolyl)isoindolin-5-yl)acetic acid] displayed an IC50 of 0.075 µM.

`COc1ccc(CN2Cc3c(C)c(-c4ccc(C)cc4)c([C@H](OC(C)(C)C)C(=O)O)c(C)c3C2)cc1` [Example 19, (S)-2-(tert-butoxy)-2-(2-(4-methoxybenzyl)-4,7-dimethyl-6-(p-tolyl)isoindolin-5-yl)acetic acid] displayed an IC50 of 0.34 µM.

For the compound `Cc1ccc(CN2Cc3c(C)c(-c4ccc(C)cc4)c([C@H](OC(C)(C)C)C(=O)O)c(C)c3C2)cc1` [Example 20, (S)-2-(tert-butoxy)-2-(4,7-dimethyl-2-(4-methylbenzyl)-6-(p-tolyl)isoindolin-5-yl)acetic acid], the IC50 worked out at 0.115 µM.

`Cc1ccc(-c2c(C)c3c(c(C)c2[C@H](OC(C)(C)C)C(=O)O)CN(Cc2ccccc2F)C3)cc1` [Example 21, (S)-2-(tert-butoxy)-2-(2-(2-fluorobenzyl)-4,7-dimethyl-6-(p-tolyl)isoindolin-5-yl)acetic acid]: half-maximal inhibition (IC50) was put at 0.04 µM.

In turn, `Cc1ccc(-c2c(C)c3c(c(C)c2[C@H](OC(C)(C)C)C(=O)O)CN(Cc2cccc(F)c2)C3)cc1` [Example 22, (S)-2-(tert-butoxy)-2-(2-(3-fluorobenzyl)-4,7-dimethyl-6-(p-tolyl)isoindolin-5-yl)acetic acid] showed an IC50 of 0.02 µM.

In the case of `Cc1ccc(-c2c(C)c3c(c(C)c2[C@H](OC(C)(C)C)C(=O)O)CN(Cc2nc(C)c[nH]2)C3)cc1` [Example 23, (S)-2-(tert-butoxy)-2-(4,7-dimethyl-2-((4-methyl-1H-imidazol-2-yl)methyl)-6-(p-tolyl)isoindolin-5-yl)acetic acid], the IC50 worked out at 0.203 µM. Compared with the last compound, the IC50 is about 10-fold higher.

Take `COc1cccc(CN2Cc3c(C)c(-c4ccc(C)cc4)c([C@H](OC(C)(C)C)C(=O)O)c(C)c3C2)c1` [Example 24, (S)-2-(tert-butoxy)-2-(2-(3-methoxybenzyl)-4,7-dimethyl-6-(p-tolyl)isoindolin-5-yl)acetic acid]: the IC50 is 0.012 µM.

In turn, `Cc1ccc(-c2c(C)c3c(c(C)c2[C@H](OC(C)(C)C)C(=O)O)CN(CC(C)C)C3)cc1` [Example 25, (S)-2-(tert-butoxy)-2-(2-isobutyl-4,7-dimethyl-6-(p-tolyl)isoindolin-5-yl)acetic acid] yielded an IC50 of 0.946 µM.

Compound `Cc1ccc(-c2c(C)c3c(c(C)c2[C@H](OC(C)(C)C)C(=O)O)CN(Cc2ccc(Cl)c(Cl)c2)C3)cc1` [Example 26, (S)-2-(tert-butoxy)-2-(2-(3,4-dichlorobenzyl)-4,7-dimethyl-6-(p-tolyl)isoindolin-5-yl)acetic acid] registered an IC50 of 0.054 µM.

Compound `Cc1ccc(-c2c(C)c3c(c(C)c2[C@H](OC(C)(C)C)C(=O)O)CN(Cc2ccc(C(F)(F)F)cc2)C3)cc1` [Example 27, (S)-2-(tert-butoxy)-2-(4,7-dimethyl-6-(p-tolyl)-2-(4-(trifluoromethyl)benzyl)isoindolin-5-yl)acetic acid] returned an IC50 of 0.932 µM.

As to `Cc1ccc(-c2c(C)c3c(c(C)c2[C@H](OC(C)(C)C)C(=O)O)CN(Cc2cccc(C(F)(F)F)c2)C3)cc1` [Example 28, (S)-2-(tert-butoxy)-2-(4,7-dimethyl-6-(p-tolyl)-2-(3-(trifluoromethyl)benzyl)isoindolin-5-yl)acetic acid], inhibition was half-maximal at 0.094 µM (IC50).

For the compound `Cc1ccc(-c2c(C)c3c(c(C)c2[C@H](OC(C)(C)C)C(=O)O)CN(Cc2cccc(-c4ccccc4)c2)C3)cc1` [Example 29, (S)-2-(2-([1,1′-biphenyl]-3-ylmethyl)-4,7-dimethyl-6-(p-tolyl)isoindolin-5-yl)-2-(tert-butoxy)acetic acid], half-maximal inhibition (IC50) was put at 0.184 µM.

`Cc1ccc(-c2c(C)c3c(c(C)c2[C@H](OC(C)(C)C)C(=O)O)CN(CC2CCCCC2)C3)cc1` [Example 30, (S)-2-(tert-butoxy)-2-(2-(cyclohexylmethyl)-4,7-dimethyl-6-(p-tolyl)isoindolin-5-yl)acetic acid]: the half-maximal inhibitory concentration (IC50) came out at 0.047 µM.

Regarding `Cc1ccc(-c2c(C)c3c(c(C)c2[C@H](OC(C)(C)C)C(=O)O)CN(C2CCCC(c4ccccc4)C2)C3)cc1` (stereo partly drawn) [Example 31, (2S)-2-(tert-butoxy)-2-(4,7-dimethyl-2-(3-phenylcyclohexyl)-6-(p-tolyl)isoindolin-5-yl)acetic acid], the IC50 worked out at 0.203 µM. This IC50 lies about 4.3-fold higher than the previous one.

`Cc1ccc(-c2c(C)c3c(c(C)c2[C@H](OC(C)(C)C)C(=O)O)CN(C2CCC[C@@H](C)C2)C3)cc1` (stereo partly drawn) [Example 32, (2S)-2-(tert-butoxy)-2-(4,7-dimethyl-2-((3R)-3-methylcyclohexyl)-6-(p-tolyl)isoindolin-5-yl)acetic acid] registered an IC50 of 0.723 µM.

Consider `Cc1ccc(-c2c(C)c3c(c(C)c2[C@H](OC(C)(C)C)C(=O)O)CN(C(=O)N[C@H]2CC[C@H](C)CC2)C3)cc1` [Example 33, (S)-2-(tert-butoxy)-2-(4,7-dimethyl-2-(((1r,4S)-4-methylcyclohexyl)carbamoyl)-6-(p-tolyl)isoindolin-5-yl)acetic acid], for which the half-inhibitory concentration (IC50) amounted to 0.616 µM.

Still in this experiment, the particulars now being: MT-4 cells; luciferase/cell titer glo readout after 96 hours; 10 point dose response.
Consider `Cc1ccc(-c2c(C)c3c(c(C)c2C(OC(C)(C)C)C(=O)O)CN(S(=O)(=O)c2cccc4ccccc24)C3)cc1` (centres unmarked) [Example 5, 2-(tert-Butoxy)-2-(4,7-dimethyl-2-(naphthalen-1-ylsulfonyl)-6-(p-tolyl)isoindolin-5-yl)acetic acid], for which the IC50 was found to be 0.042 µM.
